| SMILES | melting point |
| --- | --- |
| CCCC=Cc1c(C(C)C)nc(C(C)C)c(CO)c1-c1cccc(OC)c1 | 71 to 75 °C |
| CC(C)[C@@H](CO)NS(=O)(=O)c1ccc(Br)cc1 | 89 to 94 °C |
| Cc1nc(-c2ccc(C(F)(F)F)cc2)oc1COc1ccc(CC(=O)O)cc1Cl | 189 to 191 °C |
| COC(=O)Cc1cc(C(=O)c2ccccc2Cl)c(N)s1 | 102 to 105 °C |
| Nc1cccc(CN2CCC(OC(=O)c3ccccc3)CC2)c1 | 95 to 97 °C |
| COc1ccccc1C(=O)N1CCN(CC2(C)Cc3c(C)c(N)c(C)c(C)c3O2)CC1 (configuration not stated) | 128 to 131 °C |
| COc1cc(CCc2ccc(O)c(O)c2)cc(OC)c1OC | 113 to 115 °C |
| O=Nc1ccc(NC2CCCCC2)cc1 | 90 to 92 °C |
| CC1(C)CCc2ccc(Oc3ccc(N)cn3)cc2O1 | 93 to 94 °C |
| Cc1ccc(NC(=O)N2C(=S)C3(CCCCC3)NC23CCCCC3)cc1 | 127 to 129 °C |
| Cc1ccc(=NC#N)n(-c2cccc(C(F)(F)F)c2)c1 | 165 °C |
| CC(C)Oc1cc(CCCOc2ncccc2CC(=O)O)n(Cc2ccc(F)cc2Cl)n1 | 90 to 91 °C |
| CC(=O)N(c1ccc(O)cc1)N1CCCCC1 | 217 to 218 °C |
| C[C@]1(O)CCCC[C@H]1n1cnc(C(=O)N2CCNC[C@H]2Cc2ccccc2)c1-c1ccccc1 | 191 °C |
| CC(=O)OCCn1nc(-c2cc(C(C)(C)C)c(O)c(C(C)(C)C)c2)c2cccnc21 | 115 to 116 °C |
| OCc1ncc2n1-c1ccc(Cl)cc1C(c1ccccc1F)=NC2 | 258 to 260 °C |
| OC(c1cccc(OCc2ccc3ccccc3n2)c1)(c1nccs1)C(F)(F)F (configuration not stated) | 177 °C |
| COC(=O)Cc1csc2c(OCc3cc(-c4ccc(Cl)cc4)on3)cccc12 | 155 to 156 °C |
| CC1CC(=O)c2cc([N+](=O)[O-])cnc2C1 (configuration not stated) | 64 to 67 °C |
| Nc1nc(Cl)c2ncn(OCC(O)CO)c2n1 (configuration not stated) | 155 to 158 °C |
| CCOC(=O)C(C(=O)OCC)=C1CSC2=C1SCCNC2 | 87 to 89 °C |

| SMILES | melting point |
| --- | --- |
| CC1(C)CCc2c(Cl)cc(O)cc21 | 86.5 to 87.5 °C |
| COC(=O)c1nc(Cl)c(F)c(N)c1I | 149 to 151 °C |
| O=C1OC(Cc2ccccc2)CN1C(=O)c1ccccc1 (configuration not stated) | 109 to 110 °C |
| CC(C)Nc1nc2c(F)c(Cl)c(Cl)cc2[nH]1 | 212 to 215 °C |
| COc1ccc(C(=O)N[C@H]2C[C@@H](c3cc(NC(=O)Cc4cccc5ccccc45)n[nH]3)C2)cc1 | 176 °C |
| Cc1cc2c(s1)CCCC1CC(=O)N(c3ccc(Cl)cc3)N=C21 (configuration not stated) | 119 to 121 °C |
| Cc1c(-c2ccccc2)sc2c1c(=O)c(C(=O)O)cn2Cc1c(F)cccc1F | 286 to 289 °C |
| CCc1cccc2c(/C(C)=C/C(=O)O)cc(OC)c(OCOC)c12 | 114 to 115 °C |
| CCOP(=O)(Cc1ccc(NC(=O)CCc2conc2-c2ccc(Cl)cc2)cc1)OCC | 88 to 90 °C |
| CN1CCC(=C2c3ccccc3CC(=O)c3ccccc32)CC1 | 138 to 140 °C |
| CCCCCn1cc(C(=O)O)c2ccc(Cl)cc21 | 152 to 154 °C |
| Ic1ncnc2c1ncn2Cc1ccccc1 | 152 to 153 °C |
| Cc1ccc2[nH]c(=O)n(C(C)(C)C(=O)OCC(=O)c3ccccc3)c(=O)c2c1 | 189 to 191 °C |
| CC(CO)n1cnc2cnc3ccccc3c21 (configuration not stated) | 170 to 174 °C |
| CCOCc1nc2c(N)nc3cc(OCc4csc(-c5cccs5)n4)ccc3c2n1CC(C)(C)O | 192 to 194 °C |
| Cc1c(N2CCC(N(C)C)C(C)(C)C2)c(F)cc2c(=O)c(C(=O)O)cn(C3CC3)c12 (configuration not stated) | 209 to 210 °C |
| NC(=O)c1cn(Cc2ccccc2Cl)nn1 | 155 to 158 °C |
| COc1ccc2sc(C34CC5CC(CC(C5)C3)C4)cc(=O)c2c1 | 140 °C |
| Nc1ccc(S(=O)(=O)c2cc(C3CC3)nc(N3CCCC3)c2)cc1 | 216 to 218 °C |
| CCCCCc1cc(O)c2c3c(c(=O)oc2c1)SC(C)(C)C3 | 203 to 206 °C |
| CC(C)=CCNc1cccc(-c2ccnc3c(C(=O)c4cccs4)cnn23)c1 | 116 to 118 °C |

| SMILES | melting point |
| --- | --- |
| N#Cc1cn(-c2c(Cl)cc(C(F)(F)F)cc2Cl)cc1I | 118 to 120 °C |
| CCC(=O)Nc1cc(F)ccc1C(=O)O | 170 to 171 °C |
| CC1(C)Oc2ccc(C#N)cc2C(Oc2ccncn2)C1(C)O (configuration not stated) | 103 to 105 °C |
| C=CCN1C2CCC1C1CCC2N1C(c1ccc(C(=O)N(C)C)cc1)c1cccc(OC)c1 (configuration not stated) | 100 to 103 °C |
| O=[N+]([O-])c1cccc(/C=C/c2ccc3ccccc3n2)c1 | 145 to 147 °C |
| COC(=O)c1ccccc1OCC(O)CNC(C)(C)CNC(N)=O (configuration not stated) | 62 °C |
| Cc1cccc(Nc2ccccc2C=NO)c1C | 107 to 108 °C |
| COC(=O)C(CCSC)NC(=O)c1ccc(NC(=O)Cc2cn(S(=O)(=O)c3ccc(C)cc3)cn2)cc1-c1ccccc1 (configuration not stated) | 202 to 203 °C |
| CC(C)(C)OC(=O)NN(Cc1ccc(Cl)cc1)C(=O)OCC1c2ccccc2-c2ccccc21 | 53 to 55 °C |
| Sc1nccn1-c1nccs1 | 211 to 213 °C |
| CCCC(=O)Nc1ccc(CCn2c(=O)n(CCC)c(=O)c3[nH]c(C4CCCC4)nc32)cc1 | > 270 °C |
| CC(C(N)=O)c1ccc(N)cc1 (configuration not stated) | 120 to 122 °C |
| Cc1sc2c(Br)c3ccccc3c(-c3ccc(O)cc3)c2c1C | 165 to 168 °C |
| CC(C)NC(=O)c1ccc(CCN2CC=C(c3c[nH]c(-c4ccc(F)cc4)c3-c3ccncc3)CC2)cc1 | 178 to 180 °C |
| COC(=O)NC(=O)c1c(Br)ccc2c(C(F)(F)F)c(OC)ccc12 | 180 to 182 °C |
| O=c1[nH]c2ccc(-c3cccc([N+](=O)[O-])c3)cc2o1 | 280 to 281 °C |
| CC(C#N)c1ccc(C(=O)c2ccc(Cl)cc2)n1C (configuration not stated) | 145 to 148 °C |
| OCc1ccc2c(c1)C1(c3ccccc3-2)c2ccccc2-c2ccc(CO)cc21 | 254 to 255 °C |
| CS(=O)(=O)Nc1cccc(SCc2ccccc2)n1 | 123 to 125 °C |

Results, then the compound that gave them:

| melting point | SMILES |
| --- | --- |
| 131 to 132 °C | CC(C)CC1(C(CCN2C(=O)c3c(F)ccc(F)c3C2=O)C(=O)NO)CCN(CCc2ccccc2)C1=O (configuration not stated) |
| 101 to 102 °C | CN1CC(CCCl)Oc2cc3ccccc3cc2C1=O (configuration not stated) |
| 143 to 146 °C | Cc1cn2c(c1C(=O)OC(C)C)SCC2CC(N)=O (configuration not stated) |
| 122 to 124 °C | Nc1cc(Oc2ccccc2)c([N+](=O)[O-])cc1Cl |
| 131 °C | O=[N+]([O-])c1ccc(F)cc1CCN1CCN(c2nsc3ccccc23)CC1 |
| 145 to 148 °C | CCc1nn(C(C)C)c2cc(C(=O)Nc3c(Cl)cncc3Cl)ccc12 |
| 141 °C | Brc1cn2c(Br)cnc2c(N2CCOCC2)n1 |
| 219 to 220 °C | Cc1ccccc1C(=O)Nc1ccc(C(=O)N2CCS(=O)(=O)c3ccccc32)cc1 |
| 104 °C | CC(Cl)CC(C)Oc1ccc(-c2ccc(C(=O)Oc3ccc(C#N)cc3)cc2)cc1 (configuration not stated) |
| 178 °C | Cc1cc(NC(=O)CC#N)nc(C)n1 |
| 146 to 147 °C | CCOC(=O)CCC(NC(=O)c1ccc(CNCC2CNc3nc(NC(=O)C(C)(C)C)nc(O)c3C2)cc1)C(=O)OCC (configuration not stated) |
| 126 to 128 °C | CCOC(=O)C=Cc1ccc(Oc2nsnc(Cl)c2=O)cc1 |
| 220 °C | N#Cc1c(SSc2cn(-c3c(Cl)cc(C(F)(F)F)cc3Cl)c(Cl)c2C#N)cn(-c2c(Cl)cc(C(F)(F)F)cc2Cl)c1Cl |
| 218 to 219 °C | FC(F)(F)c1cc(OCc2ccc(-c3ccccc3-c3nnn[nH]3)cc2)c2c(n1)CCCC2 |
| 140 °C | NC(=O)NC1CCN(Cc2ccccc2)CC1 |
| 242 to 244 °C | N#Cc1ccc(-c2cc3c(n2-c2ccc(O)c(C(=O)O)c2)CCCC3)cc1 |
| 134 to 135 °C | CC(C)(C=CBr)C(=O)Nc1ccc(Cl)cc1 |
| 185 to 186 °C | CCCC(Cl)(Cl)C(NC(=O)c1ccc(Cl)cc1)NC(=C[N+](=O)[O-])Nc1cccnc1 (configuration not stated) |
| 227 °C | O=C1CC(c2ccccc2)c2cccc(CCN3CCN(c4nsc5ccccc45)CC3)c2N1 (configuration not stated) |
| 265 to 267 °C | CC1CC(=O)NN=C1c1ccc(NC2=NCCN2)c(Br)c1 (configuration not stated) |
| 99 to 101 °C | CN(C)C(=O)OCCn1nc(-c2cc(C(C)(C)C)c(O)c(C(C)(C)C)c2)c2cccnc21 |

| melting point | SMILES |
| --- | --- |
| 128 °C | CC12CCC(=O)C=C1CCN(C(=O)OCc1ccccc1)C2 (configuration not stated) |
| 75 to 76 °C | Cc1cc2c(c(C)c1[N+](=O)[O-])OCO2 |
| 293 to 296 °C | Oc1ccc(-c2nc3ccc(O)cc3o2)c(O)c1 |
| 87 to 88 °C | CC(=O)c1cc(Br)c(OCCCBr)c(Br)c1 |
| 160 to 162 °C | CS(=O)(=O)Nc1ccc(N)cc1CC1CCCCC1 |
| 169 to 170 °C | CONC(=N)c1nn(-c2c(Cl)cc(C(F)(F)F)cc2Cl)c(N)c1S(C)=O (configuration not stated) |
| > 300 °C | NC(=O)c1cc(-c2ccccc2)n[nH]c1=O |
| 191 to 192 °C | O=C([C@H]1CC[C@H](Nc2nccc(-n3ncc4ccccc43)n2)CC1)N1CCOCC1 |
| 152 to 155 °C | Cc1cccc(NC(=O)NC2N=C(CC(C)C)c3cccc(C)c3N(CC(=O)C3CCCCC3)C2=O)c1 (configuration not stated) |
| 76 to 80.5 °C | O=C(c1cc(Cl)ccc1O)c1ccccc1F |
| 95 to 96 °C | CC(=O)NCCn1ccc2c1-c1ccccc1CC2 |
| 146 to 147 °C | CC(C)(O)CCC[C@@](C)(CC#CC(O)(C(F)(F)F)C(F)(F)F)[C@H]1CC[C@H]2[C@@H](O)CCC[C@]12C |
| 138 to 140 °C | N#Cc1cc(-c2ccoc2)c2ccc(OCc3cncc(-c4ccccc4)c3)cc2c1 |
| 201 °C | CC(C)c1cc2c(-c3nc4cnccc4[nH]3)ccc(OC(F)F)c2o1 |
| 118 to 121 °C | CCCCCC(=O)NC(Cc1cnc(SCCC)n1Cc1ccccc1Cl)C(=O)O (configuration not stated) |
| 165 to 167 °C | CN(CCN(CCC12CC3CC(CC(C3)C1)C2)C(=O)NCCCc1ccncc1)S(C)(=O)=O |
| 214 °C | Cc1c(Sc2ccc(Cl)cc2)c2cc(NS(C)(=O)=O)ccc2n1CC(=O)O |
| 113 to 115 °C | Cc1cccc(Nc2cc(Cl)nc(SCC(=O)NN3CCCCC3)n2)c1C |
| 178 to 180 °C | COC(=O)C1=C(O)c2sc(C(F)(F)F)cc2S(=O)(=O)N1C |
| 214 to 217 °C | CC(C)(C)NC(=O)c1ccc(N2CCN(c3ccncc3)CC2)cc1 |
